Reference: patent US20080267942A1, “BENZAZEPIN-2(1H)-ONE DERIVATIVES” (Pfizer Limited, priority 2006, published 2008)

What was measured:
[1] = target: T1, porcine beta-2 adrenoceptor (Sus scrofa, UniProt Q28997); test: cAMP assay in CHO cells transfected with the porcine beta-2 adrenoceptor (DiscoveRx Hit Hunter cAMP II); format: cell-based; conditions: CHO cells transfected with porcine beta-2 adrenoceptor, 30 minutes incubation with compound
T1 construct: expressed in transfected cells; host or cells: CHO cells
T1 sequence (Q28997 whole entry): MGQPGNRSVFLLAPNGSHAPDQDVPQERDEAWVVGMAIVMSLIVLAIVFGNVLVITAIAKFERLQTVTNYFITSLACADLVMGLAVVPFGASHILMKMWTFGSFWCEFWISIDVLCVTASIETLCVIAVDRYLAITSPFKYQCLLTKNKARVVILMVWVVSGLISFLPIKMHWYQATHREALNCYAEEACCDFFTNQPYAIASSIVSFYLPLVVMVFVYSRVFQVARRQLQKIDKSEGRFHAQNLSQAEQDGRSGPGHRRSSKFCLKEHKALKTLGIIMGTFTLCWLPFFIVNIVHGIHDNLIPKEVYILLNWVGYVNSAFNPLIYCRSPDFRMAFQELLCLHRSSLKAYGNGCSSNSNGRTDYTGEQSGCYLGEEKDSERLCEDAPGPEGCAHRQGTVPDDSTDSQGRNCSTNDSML
Method: (§1) CHO cells transfected with the bovine or porcine beta-2 adrenceptors were maintained in culture in DMEM/HAMS F12+10% FBS+2 mM glutamine+500 μg/ml geneticin (for the porcine receptor the medium was supplement with 1.5 mM HEPES) at 37° C. with a 5% CO2 atmosphere.
(§2) Cells were plated into 96 well viewplates in medium and incubated overnight at 37° C. with a 5% CO2 atmosphere. The cells were pre-incubated with 0.5 mM IBMX in PBS for 30 minutes prior to incubation with increasing concentrations of experimental compound (5×10^−12 to 10^−5M) for 30 minutes at 37° C. with a 5% CO2 atmosphere. At the end of the incubation time the compound was removed and the cells assayed for cAMP using the DiscoveRx Hit Hunter cAMP II™ assay kit.
(§3) Duplicate samples were run for each experimental compound and the data generated was analysed using EC50 analysis software in Graphpad Prism.

[2] = target: T2, bovine beta-2 adrenoceptor (Bos taurus, UniProt Q28044); test: cAMP assay in CHO cells transfected with the bovine beta-2 adrenoceptor (DiscoveRx Hit Hunter cAMP II); format: cell-based; conditions: CHO cells transfected with bovine beta-2 adrenoceptor, 30 minutes incubation with compound
T2 construct: expressed in transfected cells; host or cells: CHO cells
T2 sequence (Q28044 whole entry): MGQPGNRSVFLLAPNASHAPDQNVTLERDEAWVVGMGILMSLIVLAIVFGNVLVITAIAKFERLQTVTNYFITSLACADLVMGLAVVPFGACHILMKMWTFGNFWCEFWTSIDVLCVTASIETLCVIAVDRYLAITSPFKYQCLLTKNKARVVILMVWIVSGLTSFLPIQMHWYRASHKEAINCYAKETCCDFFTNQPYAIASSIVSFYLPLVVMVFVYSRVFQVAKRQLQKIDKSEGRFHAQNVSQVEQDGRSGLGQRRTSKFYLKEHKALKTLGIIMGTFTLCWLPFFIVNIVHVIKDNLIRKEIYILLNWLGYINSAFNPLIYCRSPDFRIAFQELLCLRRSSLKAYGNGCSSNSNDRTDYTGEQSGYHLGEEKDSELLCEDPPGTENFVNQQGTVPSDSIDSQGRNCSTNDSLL
Method: as §1, §2, §3

| Structure (SMILES) | EC50 [1] | EC50 [2] |
| --- | --- | --- |
| CC(CCc1c[nH]c2ccc(C#N)cc12)N[C@@H]1CCn2c(=O)[nH]c3cccc(c32)[C@H]1O (mixture of isomers) [Example 29, 3-(3-{[7-Hydroxy-2-oxo-1,2,4,5,6,7-hexahydroimidazo[4,5,1-jk][1]benzazepin-6-yl]amino}butyl)-1H-indole-5-carbonitrile] | 127 nM | 83 nM |
| Cc1ccc2[nH]cc(CCC(C)N[C@@H]3CCn4c(=O)[nH]c5cccc(c54)[C@H]3O)c2c1 (mixture of isomers) [Example 33, 7-Hydroxy-6-{[1-methyl-3-(5-methyl-1H-indol-3-yl)propyl]amino}-4,5,6,7-tetrahydroimidazo[4,5,1-jk][1]benzazepin-2(1H)-one] | 24 nM | 74 nM |
| CC(CCc1cc(Cl)cc2cc[nH]c12)N[C@@H]1CCn2c(=O)[nH]c3cccc(c32)[C@H]1O (mixture of isomers) [Example 35, 6-{[3-(5-Chloro-1H-indol-7-yl)-1-methylpropyl]amino}-7-hydroxy-4,5,6,7-tetrahydroimidazo[4,5,1-jk][1]benzazepin-2(1H)-one] | 2 nM | 0.8 nM |
| CC(CCc1cccc2cc[nH]c12)N[C@@H]1CCn2c(=O)[nH]c3cccc(c32)[C@H]1O (mixture of isomers) [Example 38d, 7-Hydroxy-6-{[3-(1H-indol-7-yl)-1-methylpropyl]amino}-4,5,6,7-tetrahydroimidazo[4,5,1-jk][1]benzazepin-2(1H)-one] | 1.1 nM | 0.6 nM |
| O=c1[nH]c2cccc3c2n1CC[C@@H](NCCc1c[nH]c2ccccc12)[C@@H]3O (racemic) [Example 40a] | 20 nM | 459 nM |
| O=c1[nH]c2cccc3c2n1CC[C@@H](NCCc1c[nH]c2ccccc12)[C@@H]3O (racemic) [Example 40b] | 28 nM | 550 nM |
| CCOC(=O)c1[nH]c2cc(Cl)ccc2c1CCN[C@@H]1CCn2c(=O)[nH]c3cccc(c32)[C@H]1O (racemic) [Example 41, Ethyl-6-chloro-3-(2-{[7-hydroxy-2-oxo-1,2,4,5,6,7-hexahydroimidazo[4,5,1-jk][1]benzazepin-6-yl]amino}ethyl)-1H-indole-2-carboxylate] | 26 nM | 546 nM |
| CC(/C=C/c1ccc2[nH]cnc2c1)N[C@@H]1CCn2c(=O)[nH]c3cccc(c32)[C@H]1O (mixture of isomers) [Example 42, 6-{[3-(1H-Benzimidazol-5-yl)-1-methylprop-2-en-1-yl]amino}-7-hydroxy-4,5,6,7-tetrahydroimidazo[4,5,1-jk][1]benzazepin-2(1H)-one] | 22 nM | 23 nM |
| CC(CCc1ccc2occc2c1)N[C@@H]1CCn2c(=O)[nH]c3cccc(c32)[C@H]1O (mixture of isomers) [Example 43, 6-{[3-(1-Benzofuran-5-yl)-1-methylpropyl]amino}-7-hydroxy-4,5,6,7-tetrahydroimidazo[4,5,1-jk][1]benzazepin-2(1H)-one] | 11 nM | 16 nM |
| CC(CCc1c[nH]c2ccccc12)NC1CCn2c(=O)[nH]c3cccc(c32)C1O (single isomer, unassigned) [Example 4a, 7-Hydroxy-6-{[3-(1H-indol-3-yl)-1-methylpropyl]amino}-4,5,6,7-tetrahydroimidazo[4,5,1-jk][1]benzazepin-2(1H)-one] | 6.9 nM | 3.2 nM |
| CCOC(=O)c1[nH]c2ccccc2c1CC(C)NC1CCn2c(=O)[nH]c3cccc(c32)C1O (single isomer, unassigned) [Example 16, Ethyl 3-(2-{[7-hydroxy-2-oxo-1,2,4,5,6,7-hexahydroimidazo[4,5,1-jk][1]benzazepin-6-yl]amino}propyl)-1H-indole-2-carboxylate] | 10 nM | 26 nM |

Results, then the molecule that gave them:

| EC50 [1] | EC50 [2] | Structure (SMILES) |
| --- | --- | --- |
| 3.8 nM | 48 nM | CC(CCn1ccnc1)N[C@@H]1CCn2c(=O)[nH]c3cccc(c32)[C@H]1O (mixture of isomers) [Example 30, 7-Hydroxy-6-{[3-(1H-imidazol-1-yl)-1-methylpropyl]amino}-4,5,6,7-tetrahydroimidazo[4,5,1-jk][1]benzazepin-2(1H)-one] |
| 19 nM | 366 nM | CC(CCc1c[nH]c2ccncc12)N[C@@H]1CCn2c(=O)[nH]c3cccc(c32)[C@H]1O (mixture of isomers) [Example 31c, 7-Hydroxy-6-{[1-methyl-3-(1H-pyrrolo[3,2-c]pyridin-3-yl)-propyl]amino}-4,5,6,7-tetrahydroimidazo[4,5,1-jk][1]benzazepin-2(1H)-one] |
| 8.7 nM | 18 nM | CC(CCc1c[nH]c2cnccc12)N[C@@H]1CCn2c(=O)[nH]c3cccc(c32)[C@H]1O (mixture of isomers) [Example 32c, 7-Hydroxy-6-{[1-methyl-3-(1H-pyrrolo[2,3-c]pyridin-3-yl)propyl]amino}-4,5,6,7-tetrahydroimidazo[4,5,1-jk][1]benzazepin-2(1H)-one] |
| 45 nM | 23 nM | Cc1ncsc1CCC(C)N[C@@H]1CCn2c(=O)[nH]c3cccc(c32)[C@H]1O (mixture of isomers) [Example 34a, 7-Hydroxy-6-{[1-methyl-3-(4-methyl-1,3-thiazol-5-yl)propyl]amino}-4,5,6,7-tetrahydroimidazo[4,5,1-jk][1]benzazepin-2(1H)-one] |
| 159 nM | 330 nM | CC(CCc1ncccc1O)N[C@@H]1CCn2c(=O)[nH]c3cccc(c32)[C@H]1O (mixture of isomers) [Example 39, 7-Hydroxy-6-{[3-(3-hydroxypyridin-2-yl)-1-methylpropyl]amino}-4,5,6,7-tetrahydroimidazo[4,5,1-jk][1]benzazepin-2(1H)-one] |
| 6.9 nM | 3.8 nM | CC(CCc1c[nH]c2ccccc12)NC1CCn2c(=O)[nH]c3cccc(c32)C1O (single isomer, unassigned) [Example 4b, 7-Hydroxy-6-{[3-(1H-indol-3-yl)-1-methylpropyl]amino}-4,5,6,7-tetrahydroimidazo[4,5,1-jk][1]benzazepin-2(1H)-one] |
| > 10000 nM | 22.9 nM | CC(CCc1cncs1)N[C@@H]1CCn2c(=O)[nH]c3cccc(c32)[C@H]1O (single isomer, unassigned) [Example 6a, 7-Hydroxy-6-{[1-methyl-3-(1,3-thiazol-5-yl)propyl]amino}-4,5,6,7-tetrahydroimidazo[4,5,1-jk][1]benzazepin-2(1H)-one] |
| > 10000 nM | 3.6 nM | CC(CCc1cncs1)N[C@@H]1CCn2c(=O)[nH]c3cccc(c32)[C@H]1O (single isomer, unassigned) [Example 6b, 7-Hydroxy-6-{[1-methyl-3-(1,3-thiazol-5-yl)propyl]amino}-4,5,6,7-tetrahydroimidazo[4,5,1-jk][1]benzazepin-2(1H)-one] |
| 268 nM | 402 nM | Cc1nn(C)c(C)c1CCC(C)N[C@@H]1CCn2c(=O)[nH]c3cccc(c32)[C@H]1O (single isomer, unassigned) [Example 9a, 7-Hydroxy-6-{[1-methyl-3-(1,3,5-trimethyl-1H-pyrazol-4-yl)propyl]amino}-4,5,6,7-tetrahydroimidazo[4,5,1-jk][1]benzazepin-2(1H)-one] |
| 2.8 nM | 4.2 nM | Cc1nn(C)c(C)c1CCC(C)N[C@@H]1CCn2c(=O)[nH]c3cccc(c32)[C@H]1O (single isomer, unassigned) [Example 9b, 7-Hydroxy-6-{[1-methyl-3-(1,3,5-trimethyl-1H-pyrazol-4-yl)propyl]amino}-4,5,6,7-tetrahydroimidazo[4,5,1-jk][1]benzazepin-2(1H)-one] |
